Experimental data reported in ChEMBL document CHEMBL1201861, “Genomics of Drug Sensitity in Cancer screening data, Wellcome Trust Sanger Institute”.

Key:
[1] = tested on: CP66-MEL; assay: cells; type: functional, cell-based; settings: Homo sapiens;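 note: growth inhibition of CP66-MEL cells determined in a cell viability assay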
Description: SANGER: Inhibition of human CP66-MEL cell growth in a cell viability assay.

[2] = tested on: DK-MG; assay: cells; type: functional, cell-based; settings: Homo sapiens;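 note: growth inhibition of DK-MG cells, read out with a cell viability assay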
Description: SANGER: Inhibition of human DK-MG cell growth in a cell viability assay.

[3] = tested on: Daudi; assay: cells; type: functional, cell-based, Homo sapiens; settings: Homo sapiens, Daudi;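 note: growth inhibition of Daudi cells, read out by a viability assay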
Description: SANGER: Inhibition of human Daudi cell growth in a cell viability assay.

[4] = tested on: EW-24; assay: cells; type: functional, cell-based, Homo sapiens; settings: Homo sapiens, EW-24;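 note: human EW-24 cancer cell line, growth inhibition read out via a cell viability assay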
Description: SANGER: Inhibition of human EW-24 cell growth in a cell viability assay.

[5] = tested on: FaDu; assay: cells; type: functional, cell-based; settings: Homo sapiens;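 note: cell viability readout of growth inhibition in FaDu cells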
Description: SANGER: Inhibition of human FADU cell growth in a cell viability assay.

[6] = tested on: GAMG; assay: cells; type: functional, cell-based; settings: Homo sapiens;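 note: cell growth inhibition measured by a viability assay in the GAMG human cell line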
Description: SANGER: Inhibition of human GAMG cell growth in a cell viability assay.

[7] = tested on: HCC1419; assay: cells; type: functional, cell-based; settings: Homo sapiens;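 note: growth inhibition of human HCC1419 cells, read out as cell viability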
Description: SANGER: Inhibition of human HCC1419 cell growth in a cell viability assay.

[8] = tested on: HCC1569; assay: cells; type: functional, cell-based; settings: Homo sapiens;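 note: growth inhibition of human HCC1569 cells, read out with a cell viability assay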
Description: SANGER: Inhibition of human HCC1569 cell growth in a cell viability assay.

[9] = tested on: HCC38; assay: cells; type: functional, cell-based; settings: Homo sapiens;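 note: cell viability assay on the human HCC38 cell line, with IC50 marking the concentration that inhibits cell growth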
Description: SANGER: Inhibition of human HCC38 cell growth in a cell viability assay.

[10] = tested on: HCT-15; assay: cells; type: functional, cell-based; settings: Homo sapiens;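 note: cell viability readout, IC50 reflecting suppression of HCT-15 cell growth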
Description: SANGER: Inhibition of human HCT-15 cell growth in a cell viability assay.

[11] = tested on: HEC-1; assay: cells; type: functional, cell-based; settings: Homo sapiens;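 note: growth inhibition of the cell line, read out with a cell viability assay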
Description: SANGER: Inhibition of human HEC-1 cell growth in a cell viability assay.

[12] = tested on: HSC-4; assay: cells; type: functional, cell-based; settings: Homo sapiens;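 note: growth inhibition of human HSC-4 cells, read out with a cell viability assay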
Description: SANGER: Inhibition of human HSC-4 cell growth in a cell viability assay.

[13] = tested on: HT-1376; assay: cells; type: functional, cell-based; settings: Homo sapiens
Description: SANGER: Inhibition of human HT-1376 cell growth in a cell viability assay.

[14] = tested on: Huh-7; assay: cells; type: functional, cell-based; settings: Homo sapiens;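 note: HuH-7 cell growth inhibition, read out with a cell viability assay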
Description: SANGER: Inhibition of human HuH-7 cell growth in a cell viability assay.

[15] = tested on: IGROV-1; assay: cells; type: functional, cell-based; settings: Homo sapiens;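 note: reduction of IGROV-1 cell growth, read out with a viability assay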
Description: SANGER: Inhibition of human IGROV-1 cell growth in a cell viability assay.

[16] = tested on: K052; assay: cells; type: functional, cell-based, Homo sapiens; settings: Homo sapiens, K052;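 note: Read-out from a cell viability assay, IC50 reflecting suppression of K052 cell growth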
Description: SANGER: Inhibition of human K052 cell growth in a cell viability assay.

[17] = tested on: KYSE-520 cell line; assay: cells; type: functional, cell-based; settings: Homo sapiens;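 note: growth inhibition of human KYSE-520 cells, read out with a viability assay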
Description: SANGER: Inhibition of human KYSE-520 cell growth in a cell viability assay.

[18] = tested on: KYSE-70 cell line; assay: cells; type: functional, cell-based; settings: Homo sapiens;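 note: cell viability assay read-out, with IC50 expressing suppression of KYSE-70 cell growth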
Description: SANGER: Inhibition of human KYSE-70 cell growth in a cell viability assay.

[19] = tested on: LP-1; assay: cells; type: functional, cell-based, Homo sapiens; settings: Homo sapiens, LP-1;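 note: growth inhibition of human LP-1 cells, with the read-out taken from a cell viability assay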
Description: SANGER: Inhibition of human LP-1 cell growth in a cell viability assay.

[20] = tested on: MDA-MB-231; assay: cells; type: functional, cell-based; settings: Homo sapiens
Description: SANGER: Inhibition of human MDA-MB-231 cell growth in a cell viability assay.

[21] = tested on: MDA-MB-361; assay: cells; type: functional, cell-based; settings: Homo sapiens
[22] = tested on: MONO-MAC-6; assay: cells; type: functional, cell-based, Homo sapiens; settings: Homo sapiens, MONO-MAC-6;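 note: cell viability assay measuring growth inhibition of human MONO-MAC-6 cells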
Description: SANGER: Inhibition of human MONO-MAC-6 cell growth in a cell viability assay.

[23] = tested on: NALM-6; assay: cells; type: functional, cell-based, Homo sapiens; settings: Homo sapiens, NALM-6;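 note: growth inhibition of NALM-6 cells, read out with a cell viability assay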
Description: SANGER: Inhibition of human NALM-6 cell growth in a cell viability assay.

[24] = tested on: NB1; assay: cells; type: functional, cell-based, Homo sapiens; settings: Homo sapiens, NB1;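 note: reduction of NB1 cell proliferation, read out with a viability assay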
Description: SANGER: Inhibition of human NB1 cell growth in a cell viability assay.

[25] = tested on: NCI-H1573; assay: cells; type: functional, cell-based; settings: Homo sapiens;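 note: growth inhibition of NCI-H1573 cells, read out with a cell viability assay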
Description: SANGER: Inhibition of human NCI-H1573 cell growth in a cell viability assay.

[26] = tested on: NCI-H1792; assay: cells; type: functional, cell-based; settings: Homo sapiens;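 note: growth inhibition of human NCI-H1792 cells, read out as cell viability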
Description: SANGER: Inhibition of human NCI-H1792 cell growth in a cell viability assay.

[27] = tested on: NCI-H322M; assay: cells; type: functional, cell-based, Homo sapiens; settings: Homo sapiens, NCI-H322M;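 note: cell viability assay measuring inhibition of growth of human NCI-H322M cells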
Description: SANGER: Inhibition of human NCI-H322M cell growth in a cell viability assay.

[28] = tested on: NCI-H596; assay: cells; type: functional, cell-based; settings: Homo sapiens;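 note: growth inhibition of NCI-H596 cells, read out with a cell viability assay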
Description: SANGER: Inhibition of human NCI-H596 cell growth in a cell viability assay.

[29] = tested on: OVCAR-5; assay: cells; type: functional, cell-based; settings: Homo sapiens;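 note: growth inhibition of human OVCAR-5 cells, read out with a cell viability assay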
Description: SANGER: Inhibition of human OVCAR-5 cell growth in a cell viability assay.

[30] = tested on: P12-Ichikawa; assay: cells; type: functional, cell-based; settings: Homo sapiens
[31] = tested on: PA-1; assay: cells; type: functional, cell-based; settings: Homo sapiens;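 note: IC50 for suppression of PA-1 cell proliferation, determined with a cell viability read-out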
Description: SANGER: Inhibition of human PA-1 cell growth in a cell viability assay.

[32] = tested on: PANC-08-13; assay: cells; type: functional, cell-based; settings: Homo sapiens
Description: SANGER: Inhibition of human PANC-08-13 cell growth in a cell viability assay.

[33] = tested on: PFSK-1; assay: cells; type: functional, cell-based; settings: Homo sapiens;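 note: cell viability assay measuring how strongly compounds suppress growth of human PFSK-1 cells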
Description: SANGER: Inhibition of human PFSK-1 cell growth in a cell viability assay.

[34] = tested on: RD; assay: cells; type: functional, cell-based; settings: Homo sapiens
Description: SANGER: Inhibition of human RD cell growth in a cell viability assay.

[35] = tested on: RPMI-7951; assay: cells; type: functional, cell-based; settings: Homo sapiens
Description: SANGER: Inhibition of human RPMI-7951 cell growth in a cell viability assay.

[36] = tested on: RPMI 8402; assay: SANGER: Inhibition of human RPMI-8402 cell growth in a cell viability assay.; type: functional, cell-based; settings: Homo sapiens, RPMI 8402
[37] = tested on: Raji; assay: cells; type: functional, cell-based, Homo sapiens; settings: Homo sapiens, Raji;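 note: cell viability assay measuring inhibition of Raji cell growth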
Description: SANGER: Inhibition of human Raji cell growth in a cell viability assay.

[38] = tested on: S-117; assay: cells; type: functional, cell-based; settings: Homo sapiens
Description: SANGER: Inhibition of human S-117 cell growth in a cell viability assay.

[39] = tested on: SAS; assay: cells; type: functional, cell-based; settings: Homo sapiens;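 note: growth inhibition of SAS cells, read out with a cell viability assay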
Description: SANGER: Inhibition of human SAS cell growth in a cell viability assay.

[40] = tested on: SCC-25; assay: cells; type: functional, cell-based; settings: Homo sapiens;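 note: growth inhibition of SCC-25 cells, measured with a cell viability assay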
Description: SANGER: Inhibition of human SCC-25 cell growth in a cell viability assay.

[41] = tested on: SCC-9; assay: cells; type: functional, cell-based; settings: Homo sapiens;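 note: Read-out is a cell viability assay, with values giving inhibition of cell growth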
Description: SANGER: Inhibition of human SCC-9 cell growth in a cell viability assay.

[42] = tested on: SCLC-21H; assay: cells; type: functional, cell-based, Homo sapiens; settings: Homo sapiens, SCLC-21H;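 note: growth inhibition of cultured human SCLC-21H cells, read out with a cell viability assay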
Description: SANGER: Inhibition of human SCLC-21H cell growth in a cell viability assay.

[43] = tested on: SF-295; assay: cells; type: functional, cell-based; settings: Homo sapiens;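 note: growth inhibition of SF-295 cells, read out with a cell viability assay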
Description: SANGER: Inhibition of human SF295 cell growth in a cell viability assay.

[44] = tested on: SJRH30; assay: cells; type: functional, cell-based; settings: Homo sapiens;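 note: growth inhibition of human SJRH30 cells, read out with a cell viability assay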
Description: SANGER: Inhibition of human SJRH30 cell growth in a cell viability assay.

[45] = tested on: SK-MEL-24; assay: cells; type: functional, cell-based; settings: Homo sapiens;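 note: growth inhibition read out by a cell viability assay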
Description: SANGER: Inhibition of human SK-MEL-24 cell growth in a cell viability assay.

[46] = tested on: SNU-C1; assay: cells; type: functional, cell-based, Homo sapiens; settings: Homo sapiens, SNU-C1;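 note: growth inhibition of SNU-C1 human cells, read out by a cell viability assay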
Description: SANGER: Inhibition of human SNU-C1 cell growth in a cell viability assay.

[47] = tested on: SAOS-2; assay: cells; type: functional, cell-based; settings: Homo sapiens;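 note: growth inhibition of human Saos-2 cells determined by a cell viability assay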
Description: SANGER: Inhibition of human Saos-2 cell growth in a cell viability assay.

[48] = tested on: BC-3; assay: cells; type: functional, cell-based, Homo sapiens; settings: Homo sapiens, BC-3;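 note: cell viability assay measuring growth inhibition of human BC-3 cells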
Description: SANGER: Inhibition of human BC-3 cell growth in a cell viability assay.

[49] = tested on: BFTC-909; assay: cells; type: functional, cell-based; settings: Homo sapiens
Description: SANGER: Inhibition of human BFTC-909 cell growth in a cell viability assay.

[50] = tested on: BT-20; assay: cells; type: functional, cell-based; settings: Homo sapiens;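 note: cell viability assay measuring suppression of growth in human BT-20 cells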
Description: SANGER: Inhibition of human BT-20 cell growth in a cell viability assay.

[51] = tested on: C-33-A; assay: cells; type: functional, cell-based; settings: Homo sapiens;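 note: cell viability assay measuring growth inhibition of C-33-A cells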
Description: SANGER: Inhibition of human C-33-A cell growth in a cell viability assay.

[52] = tested on: CAKI-1; assay: cells; type: functional, cell-based; settings: Homo sapiens;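 note: growth inhibition of CAKI-1 cells, measured by a cell viability assay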
Description: SANGER: Inhibition of human CAKI-1 cell growth in a cell viability assay.

[53] = tested on: CAL-120; assay: cells; type: functional, cell-based; settings: Homo sapiens;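 note: cell growth inhibition, read out as cell viability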
Description: SANGER: Inhibition of human CAL-120 cell growth in a cell viability assay.

[54] = tested on: UACC-62; assay: cells; type: functional, cell-based; settings: Homo sapiens;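 note: growth inhibition of human UACC-62 cells, read out by a cell viability assay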
Description: SANGER: Inhibition of human UACC-62 cell growth in a cell viability assay.

[55] = tested on: YKG-1; assay: cells; type: functional, cell-based; settings: Homo sapiens;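 note: cell growth inhibition, read out with a viability assay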
Description: SANGER: Inhibition of human YKG-1 cell growth in a cell viability assay.

[56] = tested on: CHL-1; assay: cells; type: functional, cell-based; settings: Homo sapiens;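 note: cell growth inhibition, read out with a cell viability assay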
Description: SANGER: Inhibition of human CHL-1 cell growth in a cell viability assay.

[57] = tested on: CHP-212; assay: cells; type: functional, cell-based; settings: Homo sapiens
Description: SANGER: Inhibition of human CHP-212 cell growth in a cell viability assay.

For `C/C(=C\c1csc(C)n1)[C@@H]1C[C@@H]2O[C@]2(C)CCC[C@H](C)[C@H](O)[C@@H](C)C(=O)C(C)(C)[C@@H](O)CC(=O)O1` [PATUPILONE], the IC50 [1] was 11.7 nM, the IC50 [2] was > 32 nM and the IC50 [3] was 24.8 nM. The IC50 [4] was > 32 nM, the IC50 [5] was 26.2 nM and the IC50 [6] was 1.78 nM. The IC50 [7] was > 32 nM, the IC50 [8] was 12.8 nM and the IC50 [9] was 3.83 nM. The IC50 [10] was 0.717 nM, the IC50 [11] was 9.09 nM and the IC50 [12] was 29.9 nM. The IC50 [13] was 21.2 nM, the IC50 [14] was 7.11 nM and the IC50 [15] was 0.156 nM. For the same compound, the IC50 [16] was 5.84 nM, the IC50 [17] was 10.4 nM and the IC50 [18] was 7.58 nM. For the same compound, the IC50 [19] was > 32 nM, the IC50 [20] was 24.6 nM and the IC50 [21] was 16.5 nM. For the same compound, the IC50 [22] was 17.4 nM, the IC50 [23] was 2.18 nM and the IC50 [24] was 14.6 nM. For the same compound, the IC50 [25] was 6.42 nM, the IC50 [26] was 8.28 nM and the IC50 [27] was > 32 nM. The IC50 [28] was 11.6 nM, the IC50 [29] was 2.84 nM and the IC50 [30] was 11 nM. For the same compound, the IC50 [31] was 0.174 nM, the IC50 [32] was 31.1 nM and the IC50 [33] was 13.3 nM. It also gave an IC50 [34] of 4.42 nM, an IC50 [35] of 1.05 nM and an IC50 [36] of 4.45 nM. The IC50 [37] was > 32 nM, the IC50 [38] was > 32 nM and the IC50 [39] was > 32 nM. The IC50 [40] was 1.22 nM, the IC50 [41] was > 32 nM and the IC50 [42] was 7.59 nM. For the same compound, the IC50 [43] was 1.92 nM, the IC50 [44] was 12.9 nM and the IC50 [45] was > 32 nM. The IC50 [46] was > 32 nM, the IC50 [47] was > 32 nM and the IC50 [48] was 8.39 nM. It also gave an IC50 [49] of 1.56 nM, an IC50 [50] of 5.1 nM and an IC50 [51] of 3.27 nM. The IC50 [52] was 17.3 nM, the IC50 [53] was 10.1 nM and the IC50 [54] was > 32 nM. The IC50 [55] was 1.24 nM, the IC50 [56] was 0.979 nM and the IC50 [57] was 5.83 nM.
